Experimental data taken from ChEMBL document CHEMBL1201862, “PubChem BioAssay data set” (2004).
Activity calls are given as the source filed them.

Tests used:
Assay type in all cases: functional
[1] = biological target: T1, Apoptotic protease-activating factor 1 (Homo sapiens, UniProt O14727)
T1 sequence (O14727 whole entry): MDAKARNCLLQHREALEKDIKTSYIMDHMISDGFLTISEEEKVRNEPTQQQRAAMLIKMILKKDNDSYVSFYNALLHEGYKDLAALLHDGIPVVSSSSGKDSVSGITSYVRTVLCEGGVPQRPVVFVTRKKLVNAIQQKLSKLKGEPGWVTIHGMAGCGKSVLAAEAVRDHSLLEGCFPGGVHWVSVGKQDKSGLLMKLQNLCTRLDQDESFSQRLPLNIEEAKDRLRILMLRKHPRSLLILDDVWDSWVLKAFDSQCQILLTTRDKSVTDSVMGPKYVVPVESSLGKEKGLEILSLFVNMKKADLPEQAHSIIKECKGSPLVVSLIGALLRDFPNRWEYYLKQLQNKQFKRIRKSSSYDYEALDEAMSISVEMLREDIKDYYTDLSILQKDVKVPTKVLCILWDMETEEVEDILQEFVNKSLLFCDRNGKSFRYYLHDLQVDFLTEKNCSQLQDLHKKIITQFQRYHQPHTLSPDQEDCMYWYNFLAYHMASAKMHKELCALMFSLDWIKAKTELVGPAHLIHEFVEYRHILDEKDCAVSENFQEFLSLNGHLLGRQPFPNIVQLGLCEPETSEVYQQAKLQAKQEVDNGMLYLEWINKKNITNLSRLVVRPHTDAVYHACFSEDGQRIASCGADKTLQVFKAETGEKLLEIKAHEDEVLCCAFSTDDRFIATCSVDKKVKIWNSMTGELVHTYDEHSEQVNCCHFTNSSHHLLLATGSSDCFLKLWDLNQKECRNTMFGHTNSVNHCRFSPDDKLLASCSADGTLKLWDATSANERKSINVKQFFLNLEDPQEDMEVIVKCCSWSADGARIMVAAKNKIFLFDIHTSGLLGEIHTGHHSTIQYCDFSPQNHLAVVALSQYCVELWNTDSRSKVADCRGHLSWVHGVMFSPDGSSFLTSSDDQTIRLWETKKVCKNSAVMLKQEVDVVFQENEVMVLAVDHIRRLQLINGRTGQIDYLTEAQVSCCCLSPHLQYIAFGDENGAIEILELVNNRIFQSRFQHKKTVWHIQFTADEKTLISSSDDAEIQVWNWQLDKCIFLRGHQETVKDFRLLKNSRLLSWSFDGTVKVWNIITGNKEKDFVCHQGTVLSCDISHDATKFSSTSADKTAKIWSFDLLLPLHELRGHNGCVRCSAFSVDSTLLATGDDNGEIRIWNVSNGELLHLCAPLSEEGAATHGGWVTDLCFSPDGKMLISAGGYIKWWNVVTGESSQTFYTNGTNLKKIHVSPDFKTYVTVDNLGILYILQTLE

[2] = biological target: T2, Replicative DNA helicase DnaB (Mycobacterium tuberculosis, UniProt P9WMR3); test: DnaB intein splicing inhibitors, dose response, biochemical, cell-free fluorescence (AID 449749)
T2 sequence (P9WMR3 whole entry): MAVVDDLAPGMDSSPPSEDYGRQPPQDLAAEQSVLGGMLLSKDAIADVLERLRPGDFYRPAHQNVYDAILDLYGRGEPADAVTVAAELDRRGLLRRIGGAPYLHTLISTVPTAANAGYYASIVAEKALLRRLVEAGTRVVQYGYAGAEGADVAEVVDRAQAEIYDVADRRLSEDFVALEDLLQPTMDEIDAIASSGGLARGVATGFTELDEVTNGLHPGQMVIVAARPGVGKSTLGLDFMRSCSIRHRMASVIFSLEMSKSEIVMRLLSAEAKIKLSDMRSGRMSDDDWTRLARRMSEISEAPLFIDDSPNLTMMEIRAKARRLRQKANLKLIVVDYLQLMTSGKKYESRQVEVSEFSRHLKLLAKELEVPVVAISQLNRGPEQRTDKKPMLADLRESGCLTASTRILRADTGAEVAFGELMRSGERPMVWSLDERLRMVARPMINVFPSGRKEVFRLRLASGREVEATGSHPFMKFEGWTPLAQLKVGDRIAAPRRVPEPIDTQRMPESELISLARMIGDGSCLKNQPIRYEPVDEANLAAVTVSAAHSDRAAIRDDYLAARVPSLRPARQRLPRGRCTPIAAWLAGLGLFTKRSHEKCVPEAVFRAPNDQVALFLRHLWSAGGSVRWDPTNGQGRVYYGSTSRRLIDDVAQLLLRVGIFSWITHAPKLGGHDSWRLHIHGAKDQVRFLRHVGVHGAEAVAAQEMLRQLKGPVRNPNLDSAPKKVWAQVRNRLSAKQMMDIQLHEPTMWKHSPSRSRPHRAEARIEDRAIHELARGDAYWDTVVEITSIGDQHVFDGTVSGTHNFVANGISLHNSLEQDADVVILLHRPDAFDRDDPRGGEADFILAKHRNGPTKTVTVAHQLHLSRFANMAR

[3] = biological target: T3, Protein RecA (Mycobacterium tuberculosis, UniProt P9WHJ3); test: Fluorescence Cell-Free Homogeneous Dose Retest to Identify Inhibitors of RecA-Intein Splicing Activity. [Related pubchem assays (depositor defined):AID2097, AID2223, AID489010, AID492950]
T3 sequence (P9WHJ3 whole entry): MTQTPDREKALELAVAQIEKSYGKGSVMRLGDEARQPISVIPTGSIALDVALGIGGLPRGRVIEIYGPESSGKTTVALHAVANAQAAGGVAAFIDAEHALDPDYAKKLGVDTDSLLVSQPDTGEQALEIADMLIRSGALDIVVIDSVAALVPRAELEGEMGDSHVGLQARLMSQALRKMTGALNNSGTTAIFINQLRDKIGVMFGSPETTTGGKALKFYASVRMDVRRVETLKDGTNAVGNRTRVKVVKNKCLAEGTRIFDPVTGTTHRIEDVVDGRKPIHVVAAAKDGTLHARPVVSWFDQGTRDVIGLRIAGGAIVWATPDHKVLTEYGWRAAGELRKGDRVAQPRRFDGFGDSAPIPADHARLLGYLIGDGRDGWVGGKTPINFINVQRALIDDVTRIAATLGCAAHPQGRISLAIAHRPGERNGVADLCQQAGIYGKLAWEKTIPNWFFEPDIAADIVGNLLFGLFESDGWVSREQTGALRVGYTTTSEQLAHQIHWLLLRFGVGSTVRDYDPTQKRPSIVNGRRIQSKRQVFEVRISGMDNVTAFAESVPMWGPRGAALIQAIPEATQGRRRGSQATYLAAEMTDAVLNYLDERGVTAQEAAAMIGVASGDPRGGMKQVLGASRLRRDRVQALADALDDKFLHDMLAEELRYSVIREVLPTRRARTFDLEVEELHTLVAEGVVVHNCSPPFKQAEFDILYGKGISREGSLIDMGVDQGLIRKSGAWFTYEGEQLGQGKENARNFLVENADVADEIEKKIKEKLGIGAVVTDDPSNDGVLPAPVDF

O=C(NN=c1c(=O)c2ccccc2c1=O)c1ccccc1
active: IC50 [1] 1.66 µM | AC50 [2] 3.42 µM | EC50 [3] 4.83 µM
